Laboratory results: patent US20250378918A1, “Phenotype-Based Chemical Screens” (Nemametrix, priority 2015, published 2025)

Experiments:
zebrafish larvae = assay: phenoBlast query of behavioral profile database with haloperidol profile; format: in vivo; details: screened at 10 μM; cutoff = DMSO control well most similar to haloperidol query; FIGS. 2A-2C
Description: To identify compounds with haloperidol-like behavioral profiles, the behaviors of zebrafish larvae in 29,760 compound-treated wells (including 4,300 known bioactive compounds, 20,000 uncharacterized novel compounds and more than 5,000 DMSO controls) were systematically quantified. Behavioral profiles from each well were compiled into a database. Then, the average profile of three haloperidol (5 μM)-treated wells was used to query the compiled database for additional compounds that cause haloperidol-like phenotypes. […] Four of the known hit compounds were antipsychotic drugs (including three butyrophenones and one tricyclic). A fifth compound, DO 897/99 has been under investigation for treatment of schizophrenia and a sixth compound, lidoflazine, is structurally related to the known antipsychotic amperozide and other antipsychotics in the diphenylbutylpiperidine class (e.g., clopimozide, fluspirilene and pimozide) (FIG. 2C).
The Actiprobe library (TimTec Corporation) contains 10,000 compounds dissolved in DMSO at a stock concentration of 1 mg/ml (˜3 mM). The Chembridge library (Chembridge Corporation) contains 10,000 compounds dissolved in DMSO at a stock concentration of 1 mM. The Spectrum Collection (MicroSource Discovery) contains 2,320 compounds dissolved in DMSO at a concentration of 10 mM. The Prestwick library (Prestwick Chemical) contains 1,280 approved drugs dissolved in DMSO at a stock concentration of 10 mM. […]
Digital video were captured at 25 frames per second using an AVT Pike digital camera. […] To analyze digital video recordings, a motion index was calculated by frame differencing. […]
For each well, the raw motion index from each assay was concatenated into a 10,500-point motion index time series. […] The haloperidol query was calculated by averaging the time series from three replicate haloperidol-treated wells. To calculate the phenoBLAST distance metric, L1 distances were calculated by: phenoBLAST Distance=sum (abs(query-well)), where ‘query’ and ‘well’ indicate their associated time series.

larval zebrafish = assay: battery of ten zebrafish behavioral assays (motion index); format: in vivo; details: for haloperidol-like behavioral phenotype: antipsychotic drugs, FIG. 1B
Description: Haloperidol, a butyrophenone, is known to bind at least 20 molecular targets found in the human brain. To determine how haloperidol affects zebrafish behavior, a battery of ten behavioral assays was developed to compare behavioral profiles from control (DMSO) and haloperidol-treated animals.
A large number of fertilized eggs (up to 20,000 embryos per day) were collected from group matings of Ekkwill zebrafish. Embryos were raised in hatching jars at 28° C. on a 14/10 hour light/dark cycle until 3 days post fertilization (d.p.f.), then transferred to an incubator under the same conditions until 7 d.p.f. Groups of approximately ten larvae (7 d.p.f.) were distributed into the wells of clear flat bottom square well 96-well plates filled with E3 medium (300 μl). Larvae were then incubated at 25° C. on the bench top for one hour prior to chemical treatment and subsequent experiments. All zebrafish protocols were approved by the Institutional Animal Care and Use Committee at Massachusetts General Hospital or at Teleos Therapeutics, LLC.
The Actiprobe library (TimTec Corporation) contains 10,000 compounds dissolved in DMSO at a stock concentration of 1 mg/ml (˜3 mM). The Chembridge library (Chembridge Corporation) contains 10,000 compounds dissolved in DMSO at a stock concentration of 1 mM. The Spectrum Collection (MicroSource Discovery) contains 2,320 compounds dissolved in DMSO at a concentration of 10 mM. The Prestwick library (Prestwick Chemical) contains 1,280 approved drugs dissolved in DMSO at a stock concentration of 10 mM. The Neurotransmitter library (Biomol International; cat. No. 2810) contains 700 compounds dissolved in DMSO at a stock concentration of 10 mM. All compounds were diluted in E3 buffer and screened at 10 μM final concentration and <1% DMSO. Negative controls were treated with an equal volume of DMSO. Stock solutions were added directly to zebrafish in the wells of a 96-well plate, mixed and allowed to incubate for 1 h at room temperature before behavioral evaluation in the Behavioral Battery of assays. Reordered hit compounds were dissolved in DMSO to a stock concentration of 30 mM and added to wells as described above. Hits were retested at a concentration range of 50, 10, 5, 1, 0.5, 0.1, and 0.05 μM in triplicate; assays for retesting were run at 10-minute and 1-hour incubation time points.
Digital video were captured at 25 frames per second using an AVT Pike digital camera. High intensity LEDs were used to deliver violet (405 nm), blue (450 nm), and red (660 nm) light stimuli. Acoustic stimuli were delivered using push-style solenoids to tap the stage. Stimuli and digital recordings were applied to the entire 96-well plate simultaneously. Instrument control and data acquisition were performed using custom MATLAB scripts. Each assay, including video recording and data processing, took ˜40 s per plate per 30 s assay, enabling us to routinely screen 96 wells against a battery of ten assays in less than ten minutes. To analyze digital video recordings, a motion index was calculated by frame differencing. […] The behavioral battery was comprised of ten assays (Assay 1-10) performed in numerical order. phenoBlast ranking and statistics

Row | SMILES | phenoBlast similarity to haloperidol (5 μM) query profile, hit ranking (zebrafish larvae) | haloperidol-like behavioral phenotype (larval zebrafish) | other results
1 | COc1ccccc1N1CCN(CCCCNC(=O)c2ccc3ccccc3c2)CC1.Cl.Cl [DO 897/99] | hit compounds |  | 
2 | O=C(CCCN1CCC(O)(c2ccc(Br)cc2)CC1)c1ccc(F)cc1 [bromperidol] | top ranked hit compound | cause haloperidol-like behaviors | 
3 | O=C(CCCN1CC=C(n2c(=O)[nH]c3ccccc32)CC1)c1ccc(F)cc1 [droperidol] |  | cause haloperidol-like behaviors | 
4 | O=C(CCCN1CCC(O)(c2ccc(Cl)cc2)CC1)c1ccc(F)cc1 [haloperidol] |  |  | effect on locomotion of larval zebrafish (larval zebrafish; high concentrations (50 μM)): locomotor impairment; motion index in behavioral battery (larval zebrafish; lower concentrations (5 μM), FIG. 1A): complex pattern of increased activity
5 | Cc1cccc(C)c1NC(=O)CN1CCN(CCCC(c2ccc(F)cc2)c2ccc(F)cc2)CC1 [lidoflazine] | hit compounds |  | 
6 | c1ccc2c(c1)Nc1ccccc1S2 [phenothiazine] |  | cause haloperidol-like behaviors | 
7 | CN1CCN(CCCN2c3ccccc3Sc3ccc(Cl)cc32)CC1 [prochlorperazine] |  | cause haloperidol-like behaviors | 
8 | CSc1ccc2c(c1)N(CCC1CCCCN1C)c1ccccc1S2 (stereo not shown) [thioridazine] |  | cause haloperidol-like behaviors | 
